This data set is described as follows: Human HepG2 cell viability assay in 384 well format. On the set-up: dose 125 nL, time 70.5 hour; cytotoxicity at 70.5 h: concentration not given beside the values. The format is toxicity, cell-based. As to conditions: HepG2 cells, read-out: Inhibition.
As for `Cc1cc(C)n(CCN2CCN(C(=O)c3ccccc3Br)CC2)n1`, the cytotoxicity at 70.5 h is -2.29%.

As to `Cc1cc(C)n(CCN2CCN(C(=O)c3cc4ccccc4o3)CC2)n1`, the cytotoxicity at 70.5 h was -0.14%.

Take `CCOCC(=O)NCC(Cc1cccc(F)c1)N1CCCCC1=O` (stereo not drawn): the cytotoxicity at 70.5 h was determined as 30%.

As for `Cn1cc(C(=O)NCC(Cc2cccc(F)c2)N2CCCCC2=O)nn1` (stereo not drawn), the cytotoxicity at 70.5 h is -14.8%.

Take `O=C1NCCN1C(CNS(=O)(=O)C1CC1)Cc1cccc(F)c1` (stereo not drawn): the cytotoxicity at 70.5 h was -13.5%.

For the compound `CC(=O)NCC(Cc1cccc(F)c1)n1cccc1` (stereo not drawn), the cytotoxicity at 70.5 h is -5.86%.

`CCC(=O)NCC(Cc1cccc(F)c1)n1cccc1` (stereo not drawn): the cytotoxicity at 70.5 h is -7.66%.

On to `O=C(NCC(Cc1cccc(F)c1)n1cccc1)C1CC1` (stereo not drawn), for which the cytotoxicity at 70.5 h was -16.2%.

As for `COCC(=O)NCC(Cc1cccc(F)c1)n1cccc1` (stereo not drawn), the cytotoxicity at 70.5 h stood at 0.782%.

In the case of `O=S(=O)(c1ccccc1Br)N1CCC2(CC1)OCCS2`, the cytotoxicity at 70.5 h was -2.19%.

As to `O=C(NCc1c(F)cccc1F)C1CN(C(=O)c2cnccn2)C1`, the cytotoxicity at 70.5 h was -6.6%.

In the case of `CSc1ccccc1NC(=O)C1CN(C(=O)c2ccc3c(c2)OCO3)C1`, the cytotoxicity at 70.5 h amounted to 0.521%.

Turning to `O=C(Nc1cccnc1)C1CN(C(=O)c2ccc3c(c2)OCO3)C1`, the cytotoxicity at 70.5 h is -14.4%.

Consider `COCCCNC(=O)C1CN(C(=O)c2cnccn2)C1`, for which the cytotoxicity at 70.5 h is -15.7%.

Regarding `CCOC(=O)CNC(=O)C1CN(C(=O)c2cnccn2)C1`, the cytotoxicity at 70.5 h is -5.07%.

Consider `O=C(Nc1cccnc1)C1CCN(c2cc(-n3ccnc3)ncn2)CC1`, for which the cytotoxicity at 70.5 h was -5.59%.

For `O=C(Nc1cccnc1)C1CCCN(c2cc(-n3cccn3)ncn2)C1` (stereo not drawn), the cytotoxicity at 70.5 h is 4.07%.

Consider `CCS(=O)(=O)NCC1CCN(c2cnccn2)CC1`, for which the cytotoxicity at 70.5 h was -6.43%.

Consider `O=S(=O)(NCC1CCN(c2cnccn2)CC1)c1ccc(F)c(Cl)c1`, for which the cytotoxicity at 70.5 h was -1.36%.

Take `COc1ccc(Cl)cc1C(=O)NCC1CCN(C(=O)c2ccoc2)CC1`: the cytotoxicity at 70.5 h was -15.3%.

Turning to `Cc1csc(C(=O)NCCN2CCC(c3cccs3)CC2)c1`, the cytotoxicity at 70.5 h is 35.6%.

For `O=C(NCCN1CCC(c2cccs2)CC1)c1ccc(F)cc1Cl`, the cytotoxicity at 70.5 h is -3.13%.

`CSCC(C)(O)CNC(=O)Nc1cc(C)cc(C)c1` (stereo not drawn): the cytotoxicity at 70.5 h was -5.72%.

In the case of `CSCCC(C)(O)CNS(=O)(=O)Cc1ccc(F)cc1` (stereo not drawn), the cytotoxicity at 70.5 h was -17%.

With `CSc1ccccc1C(=O)NCCC(O)c1ccco1` (stereo not drawn), the cytotoxicity at 70.5 h amounted to 16.9%.

Take `CSc1ncccc1C(=O)NCCC(O)c1cccs1` (stereo not drawn): the cytotoxicity at 70.5 h is -2.95%.

On to `O=S(=O)(NCCC(O)c1cccs1)c1ccccc1Cl` (stereo not drawn), for which the cytotoxicity at 70.5 h was -10.8%.

For the compound `O=C(Nc1nc2c(s1)CN(C(=O)NCc1cccs1)CC2)C1CC1`, the cytotoxicity at 70.5 h was -9.79%.

Take `O=C(Nc1nc2c(s1)CN(S(=O)(=O)C1CC1)CC2)c1ccccn1`: the cytotoxicity at 70.5 h is -1.49%.

Consider `O=C(Nc1nc2c(s1)CN(S(=O)(=O)C1CC1)CC2)Nc1ccccc1F`, for which the cytotoxicity at 70.5 h was 23.7%.

Turning to `O=C(Nc1cccc(C(F)(F)F)c1)N1CCN(CCn2ccnc2)CC1`, the cytotoxicity at 70.5 h is -10.1%.

For the compound `COc1nn(C)cc1C(=O)NCC1(O)CCOCC1`, the cytotoxicity at 70.5 h was -3.26%.

On to `Cc1ccc(S(=O)(=O)NCC2(O)CCOc3ccccc32)s1` (stereo not drawn), for which the cytotoxicity at 70.5 h is -4.01%.

Regarding `Cc1cc(C(=O)NCc2cc(C)oc2C)no1`, the cytotoxicity at 70.5 h is -5.78%.

Consider `COC(=O)NCCCn1ccnc1-c1ccccc1`, for which the cytotoxicity at 70.5 h was -6.73%.

On to `CCOCC(=O)NCCCn1ccnc1-c1ccccc1`, for which the cytotoxicity at 70.5 h is -7.22%.

Regarding `O=C(NCc1nc2ccccc2[nH]1)c1cc2n(n1)CCCO2`, the cytotoxicity at 70.5 h is -1.37%.

Regarding `CCOC(=O)Cc1csc(NC(=O)c2cc3n(n2)CCCO3)n1`, the cytotoxicity at 70.5 h is -2.3%.

Take `O=C(NCc1nc2ccccc2[nH]1)c1cnn2c1OCCC2`: the cytotoxicity at 70.5 h is -1.96%.

Take `Cc1ccccc1C(=O)N1CC2(COC(C)(C)OC2)C1`: the cytotoxicity at 70.5 h amounted to 9.04%.

Consider `CC1(C)OCC2(CO1)CN(C(=O)c1ccccc1Cl)C2`, for which the cytotoxicity at 70.5 h is -1.63%.

As for `CC1(C)OCC2(CO1)CN(S(=O)(=O)c1ccc(Cl)s1)C2`, the cytotoxicity at 70.5 h is -1.76%.

Consider `CC(=O)N(C)CC(=O)Nc1cnc(-n2ccnc2C)nc1`, for which the cytotoxicity at 70.5 h amounted to 27.9%.

Regarding `COCC(=O)Nc1cnc(N2CCCC2)nc1`, the cytotoxicity at 70.5 h is -0.927%.

For the compound `COCC(=O)Nc1cnc(N2CCOCC2)nc1`, the cytotoxicity at 70.5 h is -3.21%.

Take `O=C(Nc1cnc(N2CCOCC2)nc1)c1ccc(C(F)(F)F)cc1`: the cytotoxicity at 70.5 h came out at 6.8%.

On to `O=C(CCCc1ccccc1)Nc1cnc(N2CCOCC2)nc1`, for which the cytotoxicity at 70.5 h is 2.35%.

Take `O=C(COc1ccc(Cl)cc1)Nc1cnc(N2CCOCC2)nc1`: the cytotoxicity at 70.5 h amounted to 1.79%.

For `CCOc1ccc(NC(=O)Nc2cnc(N3CCOCC3)nc2)cc1`, the cytotoxicity at 70.5 h came out at 3.88%.

For `CN(C)c1ncc(NS(=O)(=O)c2ccc(OC(F)(F)F)cc2)cn1`, the cytotoxicity at 70.5 h turned out to be 3.34%.

Take `CN1CCC2(Cc3ccccc3NC2=O)C1` (stereo not drawn): the cytotoxicity at 70.5 h is -3.49%.

Turning to `CC(C)C(=O)N1CCCC12CCN(C(=O)c1ccno1)C2` (stereo not drawn), the cytotoxicity at 70.5 h was -1.72%.

For the compound `O=C(C[C@H]1[C@H]2CN(C(=O)CO)C[C@@H]12)Nc1cccnc1`, the cytotoxicity at 70.5 h came to 0.591%.

With `CN(C)C(=O)c1nc2c(n1C)CCN(Cc1ccccc1)C2`, the cytotoxicity at 70.5 h was 0.767%.

`CC(C)N1CCc2onc(Cn3cccn3)c2C1`: the cytotoxicity at 70.5 h is -5.3%.

`CCOC[C@@H]1CC[C@H]2[C@H](CCN2S(=O)(=O)Cc2ccccc2)O1`: the cytotoxicity at 70.5 h is 10.7%.

Take `COC[C@@H]1CC[C@H]2[C@H](CCN2S(=O)(=O)Cc2ccccc2)O1`: the cytotoxicity at 70.5 h is -1.62%.

With `CCOC[C@H]1CC[C@H]2[C@H](CCN2S(=O)(=O)Cc2ccccc2)O1`, the cytotoxicity at 70.5 h was -1.8%.

In the case of `CCN(CC)[C@H]1COC[C@@H]2CN(Cc3cnn(C)c3)C[C@@H]21`, the cytotoxicity at 70.5 h is -3.13%.

`CCS(=O)(=O)NCC1OCCc2cn(CC3CCOCC3)nc21` (stereo not drawn): the cytotoxicity at 70.5 h amounted to 11.8%.

As for `Cc1cnc(N2CCC3(CC2)CC(NC(=O)C(C)C)CO3)nc1` (stereo not drawn), the cytotoxicity at 70.5 h turned out to be 11.3%.

Consider `CS(=O)(=O)NCC1OCCc2cn(CC3CC3)nc21` (stereo not drawn), for which the cytotoxicity at 70.5 h came to 13%.

Turning to `CN(C)S(=O)(=O)NCC1OCCc2cn(CC3CCOCC3)nc21` (stereo not drawn), the cytotoxicity at 70.5 h came out at 13.8%.

For `CN(C)S(=O)(=O)N1CC[C@]2(C[C@@H](OCC3CC3)CO2)C1`, the cytotoxicity at 70.5 h stood at 0.733%.

For `CN(C)Cc1cc(=O)n2c(n1)CN(CC1CC1)CCC2`, the cytotoxicity at 70.5 h was -6.12%.

Regarding `CCn1cc2c(n1)C(COC)CN(Cc1ccoc1)C2` (stereo not drawn), the cytotoxicity at 70.5 h is -15.1%.

In the case of `CCS(=O)(=O)N1CCOC2(COCCN(c3nccs3)C2)C1` (stereo not drawn), the cytotoxicity at 70.5 h is -8.91%.

For `Fc1cccc(N2CCOC3(CCCN(c4cnccn4)C3)C2)c1` (stereo not drawn), the cytotoxicity at 70.5 h is -7.3%.

Consider `CCS(=O)(=O)N1Cc2ccnn2CC(c2nc(C)no2)C1` (stereo not drawn), for which the cytotoxicity at 70.5 h was -9.51%.

For `c1cnnc(N2CCCC2CNCc2nc(-c3ccoc3)no2)c1` (stereo not drawn), the cytotoxicity at 70.5 h is 10%.

On to `Cc1cnn(C2CCCN(C(=O)Cc3cn4ccsc4n3)C2)c1` (stereo not drawn), for which the cytotoxicity at 70.5 h is -5.39%.

Take `Cn1cc(CN2CCCN(C(=O)c3ccc4ccccc4n3)CC2)cn1`: the cytotoxicity at 70.5 h was -13%.

As to `O=C(CN1CC(c2nc(C3CC3)no2)C1)N1CCOCC1`, the cytotoxicity at 70.5 h was -17.5%.

As for `c1cncc(-c2noc(C3CN(Cc4cccs4)C3)n2)c1`, the cytotoxicity at 70.5 h is -12.2%.

Regarding `c1cnc(-c2noc(C3CN(Cc4ccc5c(c4)CCO5)C3)n2)cn1`, the cytotoxicity at 70.5 h is -9.18%.

For the compound `COc1cc(COCC2CCN(Cc3ccccn3)CC2)cc(OC)c1`, the cytotoxicity at 70.5 h was -8.26%.

In the case of `CCS(=O)(=O)N1CCCC2(COCCN(c3cnccn3)C2)C1` (stereo not drawn), the cytotoxicity at 70.5 h is -2.48%.

For `O=C(c1ccc[nH]1)N1CCC2(CCCN2Cc2cccnc2)CC1`, the cytotoxicity at 70.5 h was 0.719%.

Regarding `CN(C)C(=O)CN1CCCC2(CCN(c3ccc(C#N)cn3)C2)C1` (stereo not drawn), the cytotoxicity at 70.5 h was determined as 8.76%.

With `CNC(=O)[C@@H]1CC[C@@H]2[C@@H](CCN2Cc2ccccc2F)O1`, the cytotoxicity at 70.5 h is -4.13%.

With `CC(C)NC(=O)[C@@H]1CC[C@@H]2[C@@H](CCN2Cc2cn(C)c3ccccc23)O1`, the cytotoxicity at 70.5 h was -2.33%.

In the case of `CN1CCc2onc(Cn3cccc3)c2C1`, the cytotoxicity at 70.5 h is -0.902%.

Consider `CC(C)N1CCc2onc(Cn3cccc3)c2C1`, for which the cytotoxicity at 70.5 h is -2.22%.

In the case of `c1cnc(N2CCO[C@H]3CN(Cc4cc[nH]n4)C[C@H]32)cn1`, the cytotoxicity at 70.5 h is -7.22%.

Take `CC(C)NC(=O)C1CCC2(CCN(Cc3cnn(C)c3)CC2)C1` (stereo not drawn): the cytotoxicity at 70.5 h is -8.81%.

Turning to `c1cnc(N2CCO[C@H]3CN(Cc4c[nH]cn4)C[C@H]32)cn1`, the cytotoxicity at 70.5 h is -5.79%.

Take `CN1CCOCC12CCN(c1nncs1)CC2`: the cytotoxicity at 70.5 h was -2.11%.

For the compound `Cc1ccoc1C(=O)N1C[C@@H](N2CCN(C)CC2)[C@H]2OCCC[C@H]21`, the cytotoxicity at 70.5 h is -4.64%.

`CN1CCN([C@@H]2CN(C(=O)Cc3ccsc3)[C@@H]3CCCO[C@H]23)CC1`: the cytotoxicity at 70.5 h is -4.38%.

On to `Fc1cnc(N2CC[C@@H]3OC(COCc4cccnc4)CC[C@@H]32)nc1` (stereo partly drawn), for which the cytotoxicity at 70.5 h is -4.57%.

Consider `CN(C)Cc1n[nH]c2c1CCN(Cc1cccs1)C2`, for which the cytotoxicity at 70.5 h was -4.47%.

Consider `Cc1ccc(CN2CCc3c(CN(C)C)n[nH]c3C2)s1`, for which the cytotoxicity at 70.5 h was -0.649%.

As to `COc1ccc(CN2CCOC3(CCCN(c4cnccn4)C3)C2)cc1` (stereo not drawn), the cytotoxicity at 70.5 h is -4.22%.

Regarding `Cn1cc(C[C@H]2[C@H](N3CCOCC3)CCN2C2CCOCC2)cn1`, the cytotoxicity at 70.5 h was -13.7%.

For `CN(C)[C@@H]1CN(Cc2cnn(C)c2)[C@@H]2COC[C@H]12`, the cytotoxicity at 70.5 h was found to be 7.8%.

For the compound `CN(C)CCNC(=O)[C@H]1C[C@H]2CN(c3ncccn3)C[C@H]2N1C`, the cytotoxicity at 70.5 h is -2.47%.

For the compound `CN1CCN([C@@H]2CCN(C3CCOCC3)[C@H]2Cc2cnn(C)c2)CC1`, the cytotoxicity at 70.5 h is -6.56%.

Regarding `CN(CCO)CC1COCCN1C(=O)C1(c2cccs2)CCCC1` (stereo not drawn), the cytotoxicity at 70.5 h was -1%.
